Values of other authors in patent publication US6703390B2, “Sulfur containing dihydrophthalazine antagonists of excitatory amino acid receptors” (Transgenomic, Inc., priority 2000, dated 2004).
Like-named read-outs stand apart in the source and are kept apart here.

Key:
[1] = system: middle cerebral artery occlusion (MCAO) model of ischemia
[2] = system: common carotid arteries model of global ischemia; details: compared with the competitive antagonist NBQX

In the case of CC1=NN=C(c2ccc(N)cc2)c2cc3c(cc2C1)OCO3 [GYKI 52466], the “reduced cortical infarct volumes” value ([1]; given continuously for 2 hours just after occlusion) is listed as 68%, the “reduced cortical infarct volumes” value ([1]; given delayed for one hour after occlusion) is listed as 48% and the “efficacy in MCAO model of ischemia” value ([1]; given either continuously for 2 hours just after occlusion or delayed for one hour) is listed as “effective”. The “efficacy in global ischemia model” value [2] was “as effective as the glutamate site competitive antagonist NBQX”.
